What all share (test): Yeast growth assay, specificity profiling
Common to all, as to assay type: cell-based
Common to all, as to set-up: key: “−” indicates no growth restoration i.e. no activity against the particular kinase; “+”, “++”, and “+++” indicate activity detected by restoration of growth, classified into three categories of potency; “+”, “++”, and “+++” indicate activity detected by restoration of growth, classified into three categories of potency; “+”, “++”, and “+++” indicate activity detected by restoration of growth, classified into three categories of potency
Common to all, as to conditions: 7 concentrations between 0.2 and 100 μM

Assay [1] deals with T1, FGFR-2 (Homo sapiens, UniProt P21802).
T1 construct: expressed in transfected cells; host or cells: yeast
The method, boiled down:
(§1)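 Yeast carrying the human RTK are shifted from glucose to galactose medium, inducing kinase expression that suppresses growth; inhibitors restore growth. Compounds are tested at 7 concentrations from 0.2 to 100 μM. Activity is scored −/+/++/+++ from the maximal growth restoration and the concentration at which it is reached.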

Assay [2] concerns the target T2, EGFR (L858R) (Homo sapiens, UniProt P00533, L858R).
T2 construct: expressed in transfected cells; host or cells: yeast
The procedure, abridged: as §1

Assay [3] addresses T3, CSF-1R (Homo sapiens, UniProt P07333).
T3 construct: expressed in transfected cells; host or cells: yeast
The procedure, abridged: as §1

In assay [4] the target is T4, KIT (Homo sapiens, UniProt P10721).
T4 construct: expressed in transfected cells; host or cells: yeast
T4 sequence (P10721 26-976): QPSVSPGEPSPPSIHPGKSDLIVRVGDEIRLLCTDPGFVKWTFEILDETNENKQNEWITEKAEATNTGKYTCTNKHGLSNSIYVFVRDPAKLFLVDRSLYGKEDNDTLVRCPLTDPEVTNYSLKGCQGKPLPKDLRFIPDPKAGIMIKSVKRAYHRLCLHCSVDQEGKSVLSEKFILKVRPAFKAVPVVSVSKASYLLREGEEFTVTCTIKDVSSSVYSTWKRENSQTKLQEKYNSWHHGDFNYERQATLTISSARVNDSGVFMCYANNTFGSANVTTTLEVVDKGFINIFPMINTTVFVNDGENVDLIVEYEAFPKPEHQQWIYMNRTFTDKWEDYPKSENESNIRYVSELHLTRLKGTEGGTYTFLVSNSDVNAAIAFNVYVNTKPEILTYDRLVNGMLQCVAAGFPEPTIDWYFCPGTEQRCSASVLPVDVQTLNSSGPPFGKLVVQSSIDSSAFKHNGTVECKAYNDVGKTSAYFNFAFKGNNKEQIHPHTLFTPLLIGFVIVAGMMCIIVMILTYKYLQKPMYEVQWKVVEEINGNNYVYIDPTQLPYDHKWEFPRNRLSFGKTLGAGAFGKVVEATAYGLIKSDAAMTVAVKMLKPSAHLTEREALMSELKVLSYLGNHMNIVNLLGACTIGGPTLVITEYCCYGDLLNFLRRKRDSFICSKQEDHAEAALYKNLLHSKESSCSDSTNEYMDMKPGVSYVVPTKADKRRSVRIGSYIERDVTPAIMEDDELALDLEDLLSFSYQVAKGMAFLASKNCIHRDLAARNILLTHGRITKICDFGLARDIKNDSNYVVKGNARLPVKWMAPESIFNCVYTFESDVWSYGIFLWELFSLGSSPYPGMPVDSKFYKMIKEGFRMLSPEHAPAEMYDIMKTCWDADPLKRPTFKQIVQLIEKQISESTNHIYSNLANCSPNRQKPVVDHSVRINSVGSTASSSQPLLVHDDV
The method, boiled down: as §1

Assay [5] has as its target T5, PDGFRa (Homo sapiens, UniProt P16234).
T5 construct: expressed in transfected cells; host or cells: yeast
The procedure, abridged: as §1

Assay [6] has as its target T6, PDGFRb (Homo sapiens, UniProt P09619).
T6 construct: expressed in transfected cells; host or cells: yeast
The method, boiled down: as §1

The target of assay [7] is T7, FGFR-1 (Homo sapiens, UniProt P11362).
T7 construct: expressed in transfected cells; host or cells: yeast
The procedure, abridged:
as §1

In assay [8] the target is T8, FGFR-3 (Homo sapiens, UniProt P22607).
T8 construct: expressed in transfected cells; host or cells: yeast
The method, boiled down: as §1

The target of assay [9] is T9, FGFR-4 (Homo sapiens, UniProt P22455).
T9 construct: expressed in transfected cells; host or cells: yeast
T9 sequence (P22455 22-802): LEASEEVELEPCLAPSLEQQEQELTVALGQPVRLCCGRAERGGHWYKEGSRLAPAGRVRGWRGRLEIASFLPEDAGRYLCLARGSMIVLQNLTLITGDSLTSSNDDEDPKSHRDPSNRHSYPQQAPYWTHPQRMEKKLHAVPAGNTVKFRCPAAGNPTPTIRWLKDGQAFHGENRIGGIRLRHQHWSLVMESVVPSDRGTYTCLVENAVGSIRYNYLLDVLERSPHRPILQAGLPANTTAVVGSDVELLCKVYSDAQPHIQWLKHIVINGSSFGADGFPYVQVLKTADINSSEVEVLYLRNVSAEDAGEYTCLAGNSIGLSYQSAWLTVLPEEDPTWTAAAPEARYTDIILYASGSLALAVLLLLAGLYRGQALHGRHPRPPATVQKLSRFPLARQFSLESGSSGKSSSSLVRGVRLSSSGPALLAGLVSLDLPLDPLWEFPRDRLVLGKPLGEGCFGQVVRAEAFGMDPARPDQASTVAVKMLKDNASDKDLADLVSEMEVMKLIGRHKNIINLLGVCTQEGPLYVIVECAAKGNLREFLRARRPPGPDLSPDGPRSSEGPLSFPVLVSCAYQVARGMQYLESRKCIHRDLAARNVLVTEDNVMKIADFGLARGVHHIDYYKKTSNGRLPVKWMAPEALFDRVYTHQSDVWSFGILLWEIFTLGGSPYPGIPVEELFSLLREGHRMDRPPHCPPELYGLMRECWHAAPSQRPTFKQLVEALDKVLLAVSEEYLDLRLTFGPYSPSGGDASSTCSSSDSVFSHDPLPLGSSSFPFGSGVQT
The procedure, abridged:
as §1

For assay [10], the target named is T10, ErbB2 (Homo sapiens, UniProt P04626).
T10 construct: expressed in transfected cells; host or cells: yeast
T10 sequence (P04626 23-1255): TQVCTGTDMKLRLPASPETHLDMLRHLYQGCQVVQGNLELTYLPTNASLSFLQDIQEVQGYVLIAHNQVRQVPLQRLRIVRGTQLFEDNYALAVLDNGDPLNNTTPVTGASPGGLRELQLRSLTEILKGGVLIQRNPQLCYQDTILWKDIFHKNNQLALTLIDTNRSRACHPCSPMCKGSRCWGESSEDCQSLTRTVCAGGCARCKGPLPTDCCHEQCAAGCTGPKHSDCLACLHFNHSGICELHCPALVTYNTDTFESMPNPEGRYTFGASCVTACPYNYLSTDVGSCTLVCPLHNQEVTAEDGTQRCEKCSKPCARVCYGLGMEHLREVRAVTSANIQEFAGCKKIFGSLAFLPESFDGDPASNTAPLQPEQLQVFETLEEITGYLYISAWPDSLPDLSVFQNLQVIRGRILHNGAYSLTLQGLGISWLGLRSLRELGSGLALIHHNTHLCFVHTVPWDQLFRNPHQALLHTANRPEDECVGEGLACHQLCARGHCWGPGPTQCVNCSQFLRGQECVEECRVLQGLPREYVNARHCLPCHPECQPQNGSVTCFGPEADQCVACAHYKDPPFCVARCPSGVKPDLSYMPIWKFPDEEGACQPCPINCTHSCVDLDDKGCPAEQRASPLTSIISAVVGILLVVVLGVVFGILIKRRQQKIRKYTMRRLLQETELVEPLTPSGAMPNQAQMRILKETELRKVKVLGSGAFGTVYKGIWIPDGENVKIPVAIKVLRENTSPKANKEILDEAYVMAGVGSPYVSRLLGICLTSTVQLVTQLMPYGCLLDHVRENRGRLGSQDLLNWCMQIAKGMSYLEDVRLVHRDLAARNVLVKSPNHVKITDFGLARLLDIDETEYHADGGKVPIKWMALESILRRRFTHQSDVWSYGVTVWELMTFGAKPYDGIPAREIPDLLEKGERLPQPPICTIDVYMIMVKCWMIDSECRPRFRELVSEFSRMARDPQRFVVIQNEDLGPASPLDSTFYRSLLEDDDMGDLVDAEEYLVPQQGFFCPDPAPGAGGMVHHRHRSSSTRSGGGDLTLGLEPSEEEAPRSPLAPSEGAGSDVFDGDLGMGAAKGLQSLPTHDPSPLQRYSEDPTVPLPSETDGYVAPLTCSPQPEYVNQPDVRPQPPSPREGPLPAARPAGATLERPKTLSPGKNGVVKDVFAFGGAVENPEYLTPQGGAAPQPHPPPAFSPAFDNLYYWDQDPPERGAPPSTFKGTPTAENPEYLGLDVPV
The method, boiled down: as §1
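Wherever EGFR (L858R) growth restoration is given: Parenthesized + marks a result obtained in a different yeast background.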

T5 sequence (P16234 24-1089): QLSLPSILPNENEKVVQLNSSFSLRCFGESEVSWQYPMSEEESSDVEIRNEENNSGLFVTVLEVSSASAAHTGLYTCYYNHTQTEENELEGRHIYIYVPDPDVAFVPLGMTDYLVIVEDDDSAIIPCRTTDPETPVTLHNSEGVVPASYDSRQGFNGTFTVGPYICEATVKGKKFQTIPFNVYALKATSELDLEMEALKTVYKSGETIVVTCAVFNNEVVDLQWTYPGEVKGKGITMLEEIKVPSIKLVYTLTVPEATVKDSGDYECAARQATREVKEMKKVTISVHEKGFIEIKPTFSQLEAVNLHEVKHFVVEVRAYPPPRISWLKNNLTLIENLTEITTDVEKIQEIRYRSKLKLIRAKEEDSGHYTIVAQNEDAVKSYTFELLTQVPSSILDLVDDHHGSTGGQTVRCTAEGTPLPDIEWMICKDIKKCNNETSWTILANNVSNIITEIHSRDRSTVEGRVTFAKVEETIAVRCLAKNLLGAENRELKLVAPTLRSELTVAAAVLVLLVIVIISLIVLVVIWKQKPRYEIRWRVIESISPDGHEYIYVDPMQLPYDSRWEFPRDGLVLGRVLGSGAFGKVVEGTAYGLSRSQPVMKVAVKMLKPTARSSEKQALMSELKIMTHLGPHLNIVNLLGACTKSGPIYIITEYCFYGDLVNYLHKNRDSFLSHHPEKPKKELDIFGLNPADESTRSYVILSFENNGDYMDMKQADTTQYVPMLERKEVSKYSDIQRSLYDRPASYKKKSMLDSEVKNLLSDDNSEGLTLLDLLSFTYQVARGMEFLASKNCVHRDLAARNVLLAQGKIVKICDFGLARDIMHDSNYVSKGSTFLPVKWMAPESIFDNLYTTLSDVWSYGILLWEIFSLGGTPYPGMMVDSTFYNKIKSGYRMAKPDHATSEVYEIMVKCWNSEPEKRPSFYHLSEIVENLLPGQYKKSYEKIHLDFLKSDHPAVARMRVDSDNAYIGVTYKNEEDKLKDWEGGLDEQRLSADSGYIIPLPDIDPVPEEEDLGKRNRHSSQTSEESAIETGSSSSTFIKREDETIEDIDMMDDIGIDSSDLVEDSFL
T3 sequence (P07333 20-972): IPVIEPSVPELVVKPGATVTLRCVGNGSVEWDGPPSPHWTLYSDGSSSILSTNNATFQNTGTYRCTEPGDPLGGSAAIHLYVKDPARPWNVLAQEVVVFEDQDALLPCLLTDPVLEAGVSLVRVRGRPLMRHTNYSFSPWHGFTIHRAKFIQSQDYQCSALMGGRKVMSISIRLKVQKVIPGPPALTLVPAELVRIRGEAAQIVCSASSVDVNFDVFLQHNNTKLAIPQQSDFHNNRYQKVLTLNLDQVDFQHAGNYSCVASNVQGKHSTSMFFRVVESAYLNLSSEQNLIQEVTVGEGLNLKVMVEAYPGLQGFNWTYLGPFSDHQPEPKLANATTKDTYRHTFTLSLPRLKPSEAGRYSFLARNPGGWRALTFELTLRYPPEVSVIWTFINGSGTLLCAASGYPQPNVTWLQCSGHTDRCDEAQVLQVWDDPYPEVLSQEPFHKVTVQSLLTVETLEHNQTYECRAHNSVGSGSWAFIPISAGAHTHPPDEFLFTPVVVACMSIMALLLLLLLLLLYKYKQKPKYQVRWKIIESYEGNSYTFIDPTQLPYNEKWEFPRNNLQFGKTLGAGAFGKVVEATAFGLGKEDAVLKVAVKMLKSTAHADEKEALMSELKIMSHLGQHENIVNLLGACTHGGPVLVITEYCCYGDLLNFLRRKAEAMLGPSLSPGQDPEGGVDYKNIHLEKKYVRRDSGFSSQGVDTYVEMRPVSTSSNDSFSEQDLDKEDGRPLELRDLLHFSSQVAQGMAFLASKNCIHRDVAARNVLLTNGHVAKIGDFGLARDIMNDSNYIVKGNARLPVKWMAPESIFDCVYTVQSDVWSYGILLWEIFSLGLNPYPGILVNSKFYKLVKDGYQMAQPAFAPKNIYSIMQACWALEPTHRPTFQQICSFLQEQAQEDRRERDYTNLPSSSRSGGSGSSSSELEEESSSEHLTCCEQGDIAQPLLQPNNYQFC

With `Cc1nccn2c(Nc3cccc(Cl)c3)c(-c3ccccc3)nc12` [compound 3, (3-Chloro-phenyl)-(8-methyl-2-phenyl-imidazo[1,2-a]pyrazin-3-yl)-amine], in assay [1], the FGFR-2 growth restoration entry is “−”. The “EGFR (L858R) growth restoration” value in [2] was “+”. Moreover, the CSF-1R growth restoration result in assay [3] was “−”. Moreover, the KIT growth restoration entry in [4] is on record as “−”. Further, the PDGFRa growth restoration entry in assay [5] was “−”. The PDGFRb growth restoration entry in assay [6] is “−”. The FGFR-1 growth restoration entry in assay [7] is “−”. The FGFR-3 growth restoration entry in assay [8] is given as “−”. The FGFR-4 growth restoration result in [9] is given as “−”. Further, the ErbB2 growth restoration result in assay [10] is given as “−”.
For the molecule `COc1cccc(-c2nc3cnccn3c2Nc2cccc(Cl)c2)c1` [compound 7, (3-Chloro-phenyl)-[2-(3-methoxy-phenyl)-imidazo[1,2-a]pyrazin-3-yl]-amine], in assay [1], the FGFR-2 growth restoration entry is “−”. For the same molecule, the “EGFR (L858R) growth restoration” value in [2] is “+”. Moreover, in assay [3], the CSF-1R growth restoration entry is given as “−”. Besides, the KIT growth restoration result in assay [4] is reported as “−”. The PDGFRa growth restoration result in assay [5] is given as “−”. Moreover, in assay [6], the PDGFRb growth restoration entry is “−”. For the same molecule, in [7], the FGFR-1 growth restoration result is reported as “−”. In assay [8], the FGFR-3 growth restoration result is given as “−”. In assay [9], the FGFR-4 growth restoration result is listed as “−”. In addition, the ErbB2 growth restoration result in assay [10] is given as “−”.
On to `Brc1cccc(Nc2c(-c3ccccc3)nc3cnccn23)c1` [compound 14, (3-Bromo-phenyl)-(2-phenyl-imidazo[1,2-a]pyrazin-3-yl)-amine], for which the FGFR-2 growth restoration entry in assay [1] is “−”. For the same molecule, the “EGFR (L858R) growth restoration” value in assay [2] is reported as “−”. Further, the CSF-1R growth restoration entry in [3] is listed as “−”. In addition, the KIT growth restoration result in assay [4] is listed as “−”. In assay [5], the PDGFRa growth restoration result is recorded as “−”. Moreover, the PDGFRb growth restoration result in [6] is listed as “−”. Also, the FGFR-1 growth restoration result in assay [7] is reported as “−”. Moreover, the FGFR-3 growth restoration entry in assay [8] is “−”. The FGFR-4 growth restoration result in [9] is recorded as “−”. Further, the ErbB2 growth restoration entry in [10] is recorded as “−”.
On to `Clc1ccc(Nc2c(-c3ccccc3)nc3cnccn23)cc1` [compound 16, (4-Chloro-phenyl)-(2-phenyl-imidazo[1,2-a]pyrazin-3-yl)-amine], for which the FGFR-2 growth restoration result in assay [1] is listed as “−”. In [2], the “EGFR (L858R) growth restoration” value was “−”. The CSF-1R growth restoration entry in assay [3] was “−”. In addition, the KIT growth restoration entry in [4] is “−”. In addition, the PDGFRa growth restoration entry in [5] was “−”. Moreover, the PDGFRb growth restoration result in assay [6] is “−”. For the same molecule, the FGFR-1 growth restoration result in assay [7] is “−”. In assay [8], the FGFR-3 growth restoration entry was “−”. Also, in assay [9], the FGFR-4 growth restoration result was “−”. Also, in assay [10], the ErbB2 growth restoration entry is reported as “−”.
On to `c1ccc(Nc2c(-c3ccccc3)nc3cnccn23)cc1` [compound 23, Phenyl-(2-phenyl-imidazo[1,2-a]pyrazin-3-yl)-amine], for which the FGFR-2 growth restoration entry in [1] was “−”. For the same molecule, the “EGFR (L858R) growth restoration” value in assay [2] is listed as “+”. Moreover, the CSF-1R growth restoration entry in assay [3] was “−”. Moreover, the KIT growth restoration entry in [4] was “−”. In addition, the PDGFRa growth restoration entry in assay [5] was “−”. Besides, the PDGFRb growth restoration entry in assay [6] is reported as “−”. Also, the FGFR-1 growth restoration result in assay [7] was “−”. In addition, the FGFR-3 growth restoration entry in assay [8] is listed as “−”. For the same molecule, in [9], the FGFR-4 growth restoration entry was “−”. In addition, the ErbB2 growth restoration result in assay [10] was “−”.
As to `Cc1cccc(Nc2c(-c3ccccc3)nc3cnccn23)c1` [compound 34, (2-Phenyl-imidazo[1,2-a]pyrazin-3-yl)-m-tolyl-amine], the FGFR-2 growth restoration result in assay [1] is given as “−”. In addition, the “EGFR (L858R) growth restoration” value in assay [2] was “−”. Moreover, in assay [3], the CSF-1R growth restoration result is on record as “−”. Moreover, the KIT growth restoration result in assay [4] was “−”. In addition, the PDGFRa growth restoration result in [5] was “−”. The PDGFRb growth restoration result in assay [6] is given as “−”. Moreover, the FGFR-1 growth restoration entry in [7] is given as “−”. Besides, the FGFR-3 growth restoration entry in assay [8] is recorded as “−”. In addition, the FGFR-4 growth restoration entry in assay [9] was “−”. Also, the ErbB2 growth restoration result in [10] is “−”.
As to `Clc1cccc(Nc2c(-c3ccccc3)nc3cnccn23)c1` [compound 35, (3-Chloro-phenyl)-(2-phenyl-imidazo[1,2-a]pyrazin-3-yl)-amine], the FGFR-2 growth restoration result in assay [1] is “−”. In addition, the “EGFR (L858R) growth restoration” value in [2] is listed as “+”. Also, the CSF-1R growth restoration result in assay [3] was “−”. The KIT growth restoration result in assay [4] was “−”. Further, in [5], the PDGFRa growth restoration result is “−”. Besides, in assay [6], the PDGFRb growth restoration result is “−”. The FGFR-1 growth restoration result in assay [7] was “−”. The FGFR-3 growth restoration entry in [8] was “−”. Also, the FGFR-4 growth restoration entry in assay [9] is “−”. In addition, the ErbB2 growth restoration entry in assay [10] is listed as “−”.
For `Cc1nccn2c(Nc3ccccc3)c(-c3ccccc3)nc12` [compound 39, (8-Methyl-2-phenyl-imidazo[1,2-a]pyrazin-3-yl)-phenyl-amine], the FGFR-2 growth restoration result in [1] is “−”. For the same molecule, the “EGFR (L858R) growth restoration” value in [2] is reported as “+”. In addition, the CSF-1R growth restoration entry in assay [3] is reported as “−”. Besides, the KIT growth restoration entry in assay [4] is reported as “−”. Moreover, the PDGFRa growth restoration entry in assay [5] is given as “−”. Moreover, the PDGFRb growth restoration entry in assay [6] is “−”. For the same molecule, the FGFR-1 growth restoration result in [7] is recorded as “−”. Besides, the FGFR-3 growth restoration entry in assay [8] is “−”. Also, the FGFR-4 growth restoration result in assay [9] was “−”. Also, the ErbB2 growth restoration entry in [10] was “−”.
On to `Cc1cccc(Nc2c(-c3ccccc3)nc3c(C)nccn23)c1` [compound 43, (8-Methyl-2-phenyl-imidazo[1,2-a]pyrazin-3-yl)-m-tolyl-amine], for which, in [1], the FGFR-2 growth restoration result was “−”. The “EGFR (L858R) growth restoration” value in assay [2] is “−”. In addition, in assay [3], the CSF-1R growth restoration entry is “−”. The KIT growth restoration entry in assay [4] is “−”. Besides, the PDGFRa growth restoration entry in assay [5] is listed as “−”. For the same molecule, the PDGFRb growth restoration result in assay [6] is “−”. Besides, in assay [7], the FGFR-1 growth restoration entry is recorded as “−”. Moreover, in assay [8], the FGFR-3 growth restoration entry was “−”. Besides, the FGFR-4 growth restoration entry in assay [9] was “−”. Besides, the ErbB2 growth restoration result in [10] was “−”.

(Values after patent US20070149535A1, “Protein kinase inhibitors” (ONCALIS AG, priority 2004, published 2007).)
